In patent publication US20110306561A1, “COMPLEMENT C3a DERIVED DIMERIC PEPTIDES AND USES THEREOF” (Yeda Research And Devlopment Co. Ltd., priority 2009, published 2011):
Where two headings read alike, the source gives them in different places. Residues, ends and D or L forms follow the SMILES beside them. No end group written: not given here.

What was measured:
RBL-2H3 cells [1] = format: cell-based, rat
Description: Mediator secretion by the rat mucosal mast cells, RBL-2H3-line, in response to stimulation by FcεRI clustering was monitored by measuring the activity of the secreted granular enzyme β-hexosaminidase. To this end, a monoclonal DNP-specific murine IgE-class antibody (rat clone 95.3, 1:10^3 dilution) was added to 15×10^6 cells in 10 ml DMEM and incubated in 96 well plates (100 μl suspension/well) for 2 hours. The cell monolayers were then washed three times with Tyrode's buffer (137 mM NaCl, 2.7 mM KCl, 1.8 mM CaCl2, 0.5 mM MgCl2, 0.4 mM NaH2PO4, 5.6 mM glucose, 10 mM Hepes, 0.1% BSA, pH 7.4.) and stimulated with BSA derivatized by an average of 11 DNP groups per molecule (DNP11-BSA) serving as an antigen. To study the effect of the peptides on antigen-induced response, RBL-2H3 cells were pre-incubated with various concentrations of the peptides for 5 minutes at room temperature before the antigen was added at the pre-determined suboptimal dose. The peptides were present throughout the assay. After 1 hour incubation at 37 ° C., 25 μl of the cell supernatants were removed and incubated with 50 μl of β-hexosaminidase substrate solution (1.3 mg/ml p-nitrophenyl-N-acetyl-β-D-glucosamine in 0.1 M sodium citrate, pH 4.5) at 37° C. for 45 minutes. The reaction was terminated by the addition of 150 μl of 0.2 M glycine, pH 10.7, and the optical density of the samples was measured at 405 nm. […] The total enzyme content of the cells/well (following lysis by triton-x-100) and the spontaneous enzyme release of the cells/well was measured in each experiment. All experiments were performed in triplicate and the results were calculated as net secreted enzyme activity (as fraction or percentage of total cell-content) in response to the stimulus.

[2] = Circular dichroism (CD) measurement of ordered structure; format: physicochemical; conditions: 100 μg/ml in PBS, room temperature; CD+/CD− not defined
Description: In order to assess possible structural features that characterize the active peptides, CD measurement were carried out. The CD measurements were performed on an Applied Photophysics spetrometer in 1 mm light path cell, at room temperature (about 25° C.). The peptides stock solutions were usually of 5 mg/ml in water and the measurements were done at a 100 μg/ml dilution in PBS.

RBL-2H3 cells [3] = conditions: Erdei et al. 1995, 1999; cited from earlier work

CC[C@H](C)[C@H](NC(=O)[C@H](Cc1ccc(O)cc1)NC(=O)[C@H](CC(N)=O)NC(=O)[C@H](CS)NC(=O)[C@H](CS)NC(=O)[C@@H](N)CC(=O)O)C(=O)N[C@H](C(=O)N[C@@H](CCCNC(=N)N)C(=O)O)[C@@H](C)O [Monomer C3a9, reference compound] (H-DCCNYITR-OH; N-terminus and C-terminus assumed)
Inhibition of secretion of 3H2 of RBL cells (IC50) (RBL-2H3 cells [1]): 200 µg/mL

CC[C@H](C)[C@H](NC(=O)[C@H](Cc1ccc(O)cc1)NC(=O)[C@H](CC(N)=O)NC(=O)[C@H](CO)NC(=O)[C@H](CSSC[C@H](NC(=O)[C@@H](N)CC(=O)O)C(=O)N[C@@H](CO)C(=O)N[C@@H](CC(N)=O)C(=O)N[C@@H](Cc1ccc(O)cc1)C(=O)N[C@H](C(=O)N[C@H](C(=O)N[C@@H](CCCNC(=N)N)C(=O)O)[C@@H](C)O)[C@@H](C)CC)NC(=O)[C@@H](N)CC(=O)O)C(=O)N[C@H](C(=O)N[C@@H](CCCNC(=N)N)C(=O)O)[C@@H](C)O [Dimer A (5508)2] (HELM PEPTIDE1{D.C.S.N.Y.I.T.R}|PEPTIDE2{D.C.S.N.Y.I.T.R}$PEPTIDE1,PEPTIDE2,2:R3-2:R3$$$V2.0; N-terminus and C-terminus assumed)
Inhibition of secretion of 3H2 of RBL cells (IC50) (RBL-2H3 cells [1]): 15 µg/mL

CC[C@H](C)[C@H](NC(=O)[C@H](Cc1ccc(O)cc1)NC(=O)[C@H](CC(N)=O)NC(=O)[C@H](CSSC[C@H](NC(=O)[C@H](CO)NC(=O)[C@@H](N)CC(=O)O)C(=O)N[C@@H](CC(N)=O)C(=O)N[C@@H](Cc1ccc(O)cc1)C(=O)N[C@H](C(=O)N[C@H](C(=O)N[C@@H](CCCNC(=N)N)C(=O)O)[C@@H](C)O)[C@@H](C)CC)NC(=O)[C@H](CO)NC(=O)[C@@H](N)CC(=O)O)C(=O)N[C@H](C(=O)N[C@@H](CCCNC(=N)N)C(=O)O)[C@@H](C)O [Dimer B (5513)2] (HELM PEPTIDE1{D.S.C.N.Y.I.T.R}|PEPTIDE2{D.S.C.N.Y.I.T.R}$PEPTIDE1,PEPTIDE2,3:R3-3:R3$$$V2.0; N-terminus and C-terminus assumed)
Inhibition of secretion of 3H2 of RBL cells (IC50) (RBL-2H3 cells [1]): 25 µg/mL

DCSNYITR [Monomer A (5508)]
Inhibition of secretion of 3H2 of RBL cells (IC50) (RBL-2H3 cells [1]): 75 µg/mL

Intact human C3a: human complement component C3a, a 77-mer polypeptide as set forth in SEQ ID NO:1
Inhibition of secretion of 3H2 of RBL cells (IC50) (RBL-2H3 cells [1]; suboptimal DNP11-BSA antigen stimulus, β-hexosaminidase): 2 µg/mL | Circular Dichroism [2]: CD+ | Effect on IgE-mediated degranulation of RBL-2H3 cells (literature) (RBL-2H3 cells [3]): inhibit the IgE-mediated degranulation of RBL-2H3 cells

B1: C5a: complement activation product C5a, anaphylatoxin (protein, UniProt P01031 678-751, looked up)
C5a anaphylatoxin: TLQKKIEEIAAKYKHSVVKKCCYDGACVNNDETCEQRAARISLGPRCIKAFTECCVVASQLRANISHKDMQLGR
modifications: C5a anaphylatoxin
Effect on IgE-mediated degranulation of RBL-2H3 cells (literature) (RBL-2H3 cells [3]): no effect
